According to the supplement of paper PMC5908809:

Legend:
[1] = tested on: SNK-6 (IL-2 2.5 ng/mL); test: percent inhibition of viability; higher = more inhibition; settings: 72 h
[2] = tested on: NK-YS (IL-2 2.5 ng/mL); test: as above; settings: 72 h
[3] = tested on: KHYG-1 (IL-2 2.5 ng/mL); test: as above; settings: 72 h
[4] = tested on: NK-92 (IL-2 2.5 ng/mL); test: as above; settings: 72 h
[5] = tested on: normal primary NK cells, pool 1 (3 donors) (IL-2 2.5 ng/mL); test: as above; settings: 72 h
[6] = tested on: KAI3 (IL-2 2.5 ng/mL); test: as above; settings: 72 h
[7] = tested on: DERL-7 (IL-2 2.5 ng/mL); test: as above; settings: 72 h
[8] = tested on: normal primary NK cells, pool 3 (3 donors) (IL-2 2.5 ng/mL); test: as above; settings: 72 h
[9] = tested on: IMC-1 (IL-2 20 ng/mL); test: as above; settings: 72 h
[10] = tested on: normal primary NK cells, pool 2 (3 donors) (IL-2 2.5 ng/mL); test: as above; settings: 72 h
[11] = tested on: NKL (IL-2 2.5 ng/mL); test: as above; settings: 72 h
[12] = tested on: normal primary NK cells, pool 1 (3 donors), resting (IL-2 0 ng/mL); test: as above; settings: 72 h
[13] = tested on: YT (IL-2 2.5 ng/mL); test: as above; settings: 72 h
[14] = tested on: SNK-6 (IL-2 2.5 ng/mL); test: drug sensitivity score (DSS) (DSS units); higher = more sensitive; extreme values may be limits of the assay; settings: 72 h
[15] = tested on: NK-YS (IL-2 2.5 ng/mL); test: as above; settings: 72 h
[16] = tested on: KHYG-1 (IL-2 2.5 ng/mL); test: as above; settings: 72 h
[17] = tested on: NK-92 (IL-2 2.5 ng/mL); test: as above; settings: 72 h
[18] = tested on: normal primary NK cells, pool 1 (3 donors) (IL-2 2.5 ng/mL); test: as above; settings: 72 h
[19] = tested on: KAI3 (IL-2 2.5 ng/mL); test: as above; settings: 72 h
[20] = tested on: DERL-7 (IL-2 2.5 ng/mL); test: as above; settings: 72 h
[21] = tested on: normal primary NK cells, pool 3 (3 donors) (IL-2 2.5 ng/mL); test: as above; settings: 72 h
[22] = tested on: IMC-1 (IL-2 20 ng/mL); test: as above; settings: 72 h
[23] = tested on: normal primary NK cells, pool 2 (3 donors) (IL-2 2.5 ng/mL); test: as above; settings: 72 h
[24] = tested on: NKL (IL-2 2.5 ng/mL); test: as above; settings: 72 h
[25] = tested on: normal primary NK cells, pool 1 (3 donors), resting (IL-2 0 ng/mL); test: as above; settings: 72 h
[26] = tested on: YT (IL-2 2.5 ng/mL); test: as above; settings: 72 h
[27] = tested on: normal NK cells expanded with K562-aAPC; test: percent inhibition of viability; higher = more inhibition; settings: 72 h, IL-2 2.5 ng/mL
Experimental: (§1)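 Drug sensitivity and resistance testing on K562-aAPC-expanded normal NK cells: 5 concentrations (10-fold steps over a 10,000-fold range), 72 h at 37 °C, viability by CellTiter-Glo normalised to DMSO and benzethonium chloride controls; DSS from the fitted curve.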

[28] = tested on: normal NK cells expanded with K562-aAPC; test: drug sensitivity score (DSS) (DSS units); higher = more sensitive; extreme values may be limits of the assay; settings: 72 h; IL-2 2.5 ng/mL
Experimental: as §1

CCS(=O)(=O)c1cccc(-c2cc(C(=O)NC3CCN(C)CC3)c(C)c3[nH]c4ncc(C)cc4c23)c1 [TAK-901] (max concentration tested 1000 nM)
percent inhibition of viability [%]
Settings | 0.1 nM | 1 nM | 10 nM | 100 nM | 1000 nM
[1] | 6.55 | 11.7 | 6.25 | 25.7 | 70.1
[2] | -2.75 | -0.83 | 5.54 | 65.6 | 70.5
[3] | -0.42 | -4.46 | -1.82 | 9.29 | 69
[4] | -8.6 | -16.9 | -4.19 | -5.4 | 6
[5] | -7.61 | -7.94 | 3.96 | 1 | 52
[6] | 1.13 | 2.62 | 9.88 | 32.9 | 77.5
[7] | -2.6 | 5.56 | -0.1 | 67.8 | 79.7
[8] | 1.04 | -10.9 | -10.6 | -10.1 | 8.18
[9] | -1.14 | 1.82 | -2.81 | 39.8 | 96.9
[10] | -4.84 | -2.84 | -10.5 | -3.4 | 24.9
[11] | -9.65 | -9.74 | -13.2 | 31.8 | 67.5
[12] | -2.04 | -13.9 | 9.75 | -5.23 | 39.3
[13] | 0.92 | -0.2 | 0.62 | 11.9 | 28.7
[27] | -4.46 | -2.36 | -2.68 | 2.78 | 47.6

Settings | drug sensitivity score
[14] | 6.86
[15] | 12.9
[16] | 5.36
[17] | 0
[18] | 2.88
[19] | 8.03
[20] | 12.5
[21] | 0
[22] | 10.6
[23] | 0.75
[24] | 7.8
[25] | 1.6
[26] | 2.64
[28] | 2.88
